Measured values published in patent publication US9708314B2, “Heterocyclic amide compound” (NISSAN CHEMICAL INDUSTRIES, LTD., priority 2013, dated 2017).

Columns and labels:
Type in all cases: in vivo
[1] = tested on: directly sowed Oryza sativa; assay: Test Example 3: effect on crop by application to foliage (Wagner pot, water depth 0.1-0.5 cm); conditions: Nineteenth Table; application to foliage; application herbicide amount 320 g/ha
Procedure, shortened: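 Seeds were sown in alluvial soil in Wagner pots, grown for 14 days at 25–30 °C, then sprayed uniformly on foliage with the emulsified compound diluted to a given rate per hectare. Injury was graded three weeks after treatment from 0 (≤5%) to 5 (≥90%).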

Glycine max = assay: Test Example 4: effect on crop by application to foliage (diluvial soil, plastic box); conditions: 320 g/ha; for c (Glycine max) effect on crop grade: foliage application
Procedure, shortened: (§1)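 Emulsion-formulated compound, diluted to a predetermined g/ha dose, applied by small sprayer to leaves and stems of 14-day-old seedlings grown in sterilized diluvial soil. Effect rated on 0–5 herbicidal-ratio scale three weeks on.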

[2] = tested on: Beta vulgaris ssp. vulgaris; assay: as above; conditions: 320 g/ha; for f (Beta vulgaris ssp. vulgaris) effect on crop grade: foliage application
Procedure, shortened: as §1

Brassica campestris L. = assay: as above; conditions: 320 g/ha; for g (Brassica campestris L.) effect on crop grade: foliage application
Procedure, shortened: as §1

Zea mays = assay: as above; conditions: 320 g/ha; for b (Zea mays) effect on crop grade: foliage application
Procedure, shortened: as §1

Triticum aestivum = assay: as above; conditions: 320 g/ha; for e (Triticum aestivum) effect on crop grade: foliage application
Procedure, shortened: as §1

[3] = tested on: directly sowed Oryza sativa; assay: as above; conditions: 320 g/ha; for d (directly sowed Oryza sativa) effect on crop grade: foliage application
Procedure, shortened: as §1

Galium spurium = assay: Test Example 4: herbicidal effect by application to foliage (diluvial soil, plastic box); conditions: 320 g/ha; for Q (Galium spurium) herbicidal effect grade: foliage application
Procedure, shortened: as §1

Alopecurus myosuroides = assay: as above; conditions: 320 g/ha; for J (Alopecurus myosuroides) herbicidal effect grade: foliage application
Procedure, shortened: as §1

[4] = tested on: Echinochloa crus-galli var. crus-galli; assay: as above; conditions: 320 g/ha; for H (Echinochloa crus-galli var. crus-galli) herbicidal effect grade: foliage application
Procedure, shortened: as §1

Veronica persica = assay: as above; conditions: 320 g/ha; for R (Veronica persica) herbicidal effect grade: foliage application
Procedure, shortened: as §1

Setaria viridis = assay: as above; conditions: 320 g/ha; for G (Setaria viridis) herbicidal effect grade: foliage application
Procedure, shortened: as §1

Avena fatua = assay: as above; conditions: 320 g/ha; for I (Avena fatua) herbicidal effect grade: foliage application
Procedure, shortened: as §1

Apera spica-venti. = assay: as above; conditions: 320 g/ha; for L (Apera spica-venti.) herbicidal effect grade: foliage application
Procedure, shortened: as §1

Digitaria ciliaris = assay: as above; conditions: 320 g/ha; for F (Digitaria ciliaris) herbicidal effect grade: foliage application
Procedure, shortened: as §1

Stellaria media = assay: as above; conditions: 320 g/ha; for P (Stellaria media) herbicidal effect grade: foliage application
Procedure, shortened: as §1

Lolium multiflorum Lam. = assay: as above; conditions: 320 g/ha; for K (Lolium multiflorum Lam.) herbicidal effect grade: foliage application
Procedure, shortened: as §1

Chenopodium album = assay: as above; conditions: 320 g/ha; for O (Chenopodium album) herbicidal effect grade: foliage application
Procedure, shortened: as §1

Amaranthus retroflexus = assay: as above; conditions: 320 g/ha; for N (Amaranthus retroflexus) herbicidal effect grade: foliage application
Procedure, shortened: as §1

Abutilon theophrasti = assay: as above; conditions: 320 g/ha; for M (Abutilon theophrasti) herbicidal effect grade: foliage application
Procedure, shortened: as §1

| SMILES | b (effect on crop grade) [1] | c (Glycine max) effect on crop grade (Glycine max) | f (Beta vulgaris ssp. vulgaris) effect on crop grade [2] | g (Brassica campestris L.) effect on crop grade (Brassica campestris L.) | b (Zea mays) effect on crop grade (Zea mays) | e (Triticum aestivum) effect on crop grade (Triticum aestivum) | d (directly sowed Oryza sativa) effect on crop grade [3] | Q (Galium spurium) herbicidal effect grade (Galium spurium) | J (Alopecurus myosuroides) herbicidal effect grade (Alopecurus myosuroides) | H (Echinochloa crus-galli var. crus-galli) herbicidal effect grade [4] | R (Veronica persica) herbicidal effect grade (Veronica persica) | G (Setaria viridis) herbicidal effect grade (Setaria viridis) | I (Avena fatua) herbicidal effect grade (Avena fatua) | L (Apera spica-venti.) herbicidal effect grade (Apera spica-venti.) | F (Digitaria ciliaris) herbicidal effect grade (Digitaria ciliaris) | P (Stellaria media) herbicidal effect grade (Stellaria media) | K (Lolium multiflorum Lam.) herbicidal effect grade (Lolium multiflorum Lam.) | O (Chenopodium album) herbicidal effect grade (Chenopodium album) | N (Amaranthus retroflexus) herbicidal effect grade (Amaranthus retroflexus) | M (Abutilon theophrasti) herbicidal effect grade (Abutilon theophrasti) | also measured |
| --- | --- | --- | --- | --- | --- | --- | --- | --- | --- | --- | --- | --- | --- | --- | --- | --- | --- | --- | --- | --- | --- |
| COCCn1nnnc1NC(=O)c1ccc(C(F)(F)F)n2c(C(C)C)nnc12 [2-041] | 3 (Herbicidal ratio of 40% or more and less than 70%) | 0 (Herbicidal ratio of 5% or less (almost no effect)) | 5 (Herbicidal ratio of 90% or more (almost completely withered)) | 4 (Herbicidal ratio of 70% or more and less than 90%) | 2 (Herbicidal ratio of 20% or more and less than 40%) | 3 (Herbicidal ratio of 40% or more and less than 70%) | 4 (Herbicidal ratio of 70% or more and less than 90%) | 4 (Herbicidal ratio of 70% or more and less than 90%) | 3 (Herbicidal ratio of 40% or more and less than 70%) | 5 (Herbicidal ratio of 90% or more (almost completely withered)) | 4 (Herbicidal ratio of 70% or more and less than 90%) | 3 (Herbicidal ratio of 40% or more and less than 70%) | 3 (Herbicidal ratio of 40% or more and less than 70%) | 4 (Herbicidal ratio of 70% or more and less than 90%) | 4 (Herbicidal ratio of 70% or more and less than 90%) | 5 (Herbicidal ratio of 90% or more (almost completely withered)) | 3 (Herbicidal ratio of 40% or more and less than 70%) | 5 (Herbicidal ratio of 90% or more (almost completely withered)) | 4 (Herbicidal ratio of 70% or more and less than 90%) | 5 (Herbicidal ratio of 90% or more (almost completely withered)) | – |
| CCCSc1nnc2c(C(=O)Nc3nnnn3C)ccc(C(F)(F)F)n12 [2-068] | 5 (Herbicidal ratio of 90% or more (almost completely withered)) | 3 (Herbicidal ratio of 40% or more and less than 70%) | 5 (Herbicidal ratio of 90% or more (almost completely withered)) | 4 (Herbicidal ratio of 70% or more and less than 90%) | 5 (Herbicidal ratio of 90% or more (almost completely withered)) | 2 (Herbicidal ratio of 20% or more and less than 40%) | 4 (Herbicidal ratio of 70% or more and less than 90%) | 4 (Herbicidal ratio of 70% or more and less than 90%) | 2 (Herbicidal ratio of 20% or more and less than 40%) | 5 (Herbicidal ratio of 90% or more (almost completely withered)) | 5 (Herbicidal ratio of 90% or more (almost completely withered)) | 5 (Herbicidal ratio of 90% or more (almost completely withered)) | 3 (Herbicidal ratio of 40% or more and less than 70%) | 3 (Herbicidal ratio of 40% or more and less than 70%) | 5 (Herbicidal ratio of 90% or more (almost completely withered)) | 5 (Herbicidal ratio of 90% or more (almost completely withered)) | 2 (Herbicidal ratio of 20% or more and less than 40%) | 5 (Herbicidal ratio of 90% or more (almost completely withered)) | 5 (Herbicidal ratio of 90% or more (almost completely withered)) | 5 (Herbicidal ratio of 90% or more (almost completely withered)) | – |
| COc1ccc(N(C)c2nnc3c(C(=O)Nc4nnnn4C)ccc(C(F)(F)F)n23)cc1 [2-099] | 4 (Herbicidal ratio of 70% or more and less than 90%) | – | – | – | – | – | – | – | – | – | – | – | – | – | – | – | – | – | – | – | effect on crop, c (Glycine max) (Glycine max; application to foliage): 0 (Herbicidal ratio of 5% or less (almost no effect)); effect on crop, f (Beta vulgaris ssp. vulgaris) ([2]; application to foliage): 5 (Herbicidal ratio of 90% or more (almost completely withered)); effect on crop, g (Brassica campestris L.) (Brassica campestris L.; application to foliage): 4 (Herbicidal ratio of 70% or more and less than 90%); effect on crop, b (Zea mays) (Zea mays; application to foliage): 3 (Herbicidal ratio of 40% or more and less than 70%); effect on crop, e (Triticum aestivum) (Triticum aestivum; application to foliage): 0 (Herbicidal ratio of 5% or less (almost no effect)); effect on crop, d (directly sowed Oryza sativa) ([3]; application to foliage): 4 (Herbicidal ratio of 70% or more and less than 90%); herbicidal effect, Q (Galium spurium) (Galium spurium; application to foliage): 4 (Herbicidal ratio of 70% or more and less than 90%); herbicidal effect, J (Alopecurus myosuroides) (Alopecurus myosuroides; application to foliage): 0 (Herbicidal ratio of 5% or less (almost no effect)); herbicidal effect, H (Echinochloa crus-galli var. crus-galli) ([4]; application to foliage): 5 (Herbicidal ratio of 90% or more (almost completely withered)); herbicidal effect, R (Veronica persica) (Veronica persica; application to foliage): 5 (Herbicidal ratio of 90% or more (almost completely withered)); herbicidal effect, G (Setaria viridis) (Setaria viridis; application to foliage): 4 (Herbicidal ratio of 70% or more and less than 90%); herbicidal effect, I (Avena fatua) (Avena fatua; application to foliage): 2 (Herbicidal ratio of 20% or more and less than 40%); herbicidal effect, L (Apera spica-venti.) (Apera spica-venti.; application to foliage): 1 (Herbicidal ratio of 5% or more and less than 20%); herbicidal effect, F (Digitaria ciliaris) (Digitaria ciliaris; application to foliage): 5 (Herbicidal ratio of 90% or more (almost completely withered)); herbicidal effect, P (Stellaria media) (Stellaria media; application to foliage): 5 (Herbicidal ratio of 90% or more (almost completely withered)); herbicidal effect, K (Lolium multiflorum Lam.) (Lolium multiflorum Lam.; application to foliage): 1 (Herbicidal ratio of 5% or more and less than 20%); herbicidal effect, O (Chenopodium album) (Chenopodium album; application to foliage): 5 (Herbicidal ratio of 90% or more (almost completely withered)); herbicidal effect, N (Amaranthus retroflexus) (Amaranthus retroflexus; application to foliage): 4 (Herbicidal ratio of 70% or more and less than 90%); herbicidal effect, M (Abutilon theophrasti) (Abutilon theophrasti; application to foliage): 4 (Herbicidal ratio of 70% or more and less than 90%) |
| CC(C)c1nnc2c(C(=O)Nc3nnnn3-c3ccccc3)ccc(C(F)(F)F)n12 [2-073] | 2 (Herbicidal ratio of 20% or more and less than 40%) | 0 (Herbicidal ratio of 5% or less (almost no effect)) | 3 (Herbicidal ratio of 40% or more and less than 70%) | 0 (Herbicidal ratio of 5% or less (almost no effect)) | 0 (Herbicidal ratio of 5% or less (almost no effect)) | 0 (Herbicidal ratio of 5% or less (almost no effect)) | 2 (Herbicidal ratio of 20% or more and less than 40%) | 0 (Herbicidal ratio of 5% or less (almost no effect)) | 0 (Herbicidal ratio of 5% or less (almost no effect)) | 4 (Herbicidal ratio of 70% or more and less than 90%) | 2 (Herbicidal ratio of 20% or more and less than 40%) | 1 (Herbicidal ratio of 5% or more and less than 20%) | 1 (Herbicidal ratio of 5% or more and less than 20%) | 0 (Herbicidal ratio of 5% or less (almost no effect)) | 1 (Herbicidal ratio of 5% or more and less than 20%) | 4 (Herbicidal ratio of 70% or more and less than 90%) | 1 (Herbicidal ratio of 5% or more and less than 20%) | 5 (Herbicidal ratio of 90% or more (almost completely withered)) | 3 (Herbicidal ratio of 40% or more and less than 70%) | 3 (Herbicidal ratio of 40% or more and less than 70%) | – |
